In publication PMC6545112 (Journal of medicinal chemistry, 2018):
Entries after “also recorded” stand apart in the source; their conditions may differ. Where two headings read alike, the source gives them in different places.

Columns and labels:
[1] = tested on: MDM2, p53, p21 and PARP cleavage in RS4;11 xenograft tumors; assay: pharmacodynamic analysis in RS4; type: in vivo, mice; conditions: single dose 25 mg/kg, IV
MOLM-13 = assay: cell growth inhibition assay, MOLM-13; type: cell-based, human; conditions: read-out: IC50 (nM) in cell growth inhibition assay; MOLM-13, AML, p53 WT
MOLM-14 = assay: cell growth inhibition assay, MOLM-14; type: cell-based, human; conditions: read-out: IC50 (nM) in cell growth inhibition assay; MOLM-14, AML, p53 WT
KG-1 = assay: cell growth inhibition assay, KG-1; type: cell-based, human; conditions: read-out: IC50 in cell growth inhibition assay; KG-1, AML, p53 MUT
RS4;11 cell line = assay: cell growth inhibition, WST-8 assay, RS4; type: cell-based, human; conditions: for IC50: 4 days, WST-8 assay
[2] = tested on: leukemia cell lines with mutated p53; assay: cell growth inhibition, leukemia cell lines with mutated p53; type: cell-based, human; conditions: read-out: IC50 in leukemia cell lines with mutated p53
RS4;11 xenograft tumors = assay: antitumor activity in the RS4; type: in vivo, mice
RS4;11 cells = assay: flow cytometric analysis of apoptosis, Annexin V/PI double staining; type: cell-based, human; conditions: RS4;11, 24 h treatment
Mono-Mac-6 = assay: cell growth inhibition assay, Mono-Mac-6; type: cell-based, human; conditions: read-out: IC50 in cell growth inhibition assay; Mono-Mac-6, AML, p53 MUT
[3] = tested on: p53 target genes (MDM2, p21, PUMA) and TP53 in RS4;11 cells; assay: qRT-PCR analysis of mRNA levels of p53 target genes and TP53 in RS4; type: cell-based, human; conditions: RS4;11, 6 h
ML-2 = assay: cell growth inhibition assay, ML-2; type: cell-based, human; conditions: read-out: IC50 (nM) in cell growth inhibition assay; ML-2, AML, p53 WT
SIG-M5 = assay: cell growth inhibition assay, SIG-M5; type: cell-based, human; conditions: read-out: IC50 (nM) in cell growth inhibition assay; SIG-M5, AML, p53 WT
OCL-AML-5 = assay: cell growth inhibition assay, OCL-AML-5; type: cell-based, human; conditions: read-out: IC50 (nM) in cell growth inhibition assay; OCL-AML-5, AML, p53 WT
[4] = tested on: human acute leukemia cell lines with wild-type p53; assay: cell growth inhibition, panel of acute leukemia cell lines with wild-type p53; type: cell-based
[5] = first efficacy experiment
[6] = biological target: MDM2 and p53 proteins in RS4;11 cells (Homo sapiens, UniProt Q00987); assay: western blotting analysis of MDM2 and p53 proteins in RS4; type: cell-based
Sequence of MDM2 and p53 proteins in RS4;11 cells (Q00987 whole entry): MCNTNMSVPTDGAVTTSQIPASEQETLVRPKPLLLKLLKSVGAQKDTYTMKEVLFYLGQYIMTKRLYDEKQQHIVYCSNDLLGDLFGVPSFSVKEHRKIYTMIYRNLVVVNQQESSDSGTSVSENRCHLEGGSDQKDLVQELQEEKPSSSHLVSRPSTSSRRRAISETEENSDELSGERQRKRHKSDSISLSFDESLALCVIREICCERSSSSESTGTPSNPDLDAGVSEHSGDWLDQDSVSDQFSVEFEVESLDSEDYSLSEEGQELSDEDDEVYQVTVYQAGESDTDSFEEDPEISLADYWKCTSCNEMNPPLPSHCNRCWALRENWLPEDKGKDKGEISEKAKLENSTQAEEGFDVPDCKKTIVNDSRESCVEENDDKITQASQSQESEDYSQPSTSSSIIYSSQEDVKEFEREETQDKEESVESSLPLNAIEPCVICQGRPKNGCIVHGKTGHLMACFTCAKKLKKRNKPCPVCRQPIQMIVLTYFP

MV4;11 AML cell line = assay: cell growth inhibition, MV4; type: cell-based, human
[7] = biological target: MDM2 and p53 proteins in MV4;11 cell line (Homo sapiens, UniProt Q00987); assay: western blotting analysis of MDM2 and p53 proteins in MV4; type: cell-based; conditions: MV4;11, 2 h, compared to RS4;11
Sequence of MDM2 and p53 proteins in MV4;11 cell line (Q00987 whole entry): as above

[8] = tested on: MDM2, p53, p21 and PARP cleavage in RS4;11 xenograft tumors; conditions: single dose, mice; cited from earlier work
[9] = read-out: IC50 (nM) in inhibition of cell growth in the RS4;11 cell line

Molecule: (3’R,4’S,5’R)-6”-Chloro-4’-(3-Chloro-2-fluorophenyl)-N-(4-((5-(2-(2,6-dioxopiperidin-3-yl)-1,3-dioxoisoindolin-4-yl)pent-4-yn-1-yl)carbamoyl)phenyl)-2”-oxodispiro[cyclohexane-1,2’-pyrrolidine-3’,3”-indoline]-5’-carboxamide [Compound 14]
- PARP cleavage in tumor tissue [1]: evident at the 24 h time point
- persistence of MDM2 protein depletion in tumor tissue ([1]; depleted at 3 h): > 24 h
- duration of p53 and p21 upregulation in tumor tissue ([1]; strong at 3 h): > 24 h
- IC50 (MOLM-13): 7.3 ± 3 nM
- IC50 (MOLM-14): 10.5 ± 3 nM
- IC50 (KG-1): > 10000 nM
- times more potent than MD-222 in inhibition of cell growth (RS4;11 cell line; RS4;11): 2 times
- IC50 (RS4;11 cell line; [9]): 1.5 ± 0.5 nM
- IC50 [2]: > 10000 nM
- antitumor activity (RS4;11 xenograft tumors; 25 mg/kg, daily, 5 days a week for 2 weeks): complete tumor regression
- antitumor activity (RS4;11 xenograft tumors; 50 mg/kg, every other day for three weeks): complete tumor regression
- antitumor activity (RS4;11 xenograft tumors; 50 mg/kg, weekly dosing): complete tumor growth inhibition
- times more potent than MI-1061 in inducing apoptosis (RS4;11 cells): > 10 times
- IC50 (Mono-Mac-6): > 10000 nM
- effect on TP53 mRNA [3]: have no effect on TP53
- times more potent than MI-1061 in transcriptional upregulation of p53 target genes [3]: > 10 times
- IC50 (ML-2): 4.4 ± 2 nM
- IC50 (SIG-M5): 19.8 ± 11 nM
- IC50 (OCL-AML-5): 33.1 ± 18 nM
- times more potent than MI-1061 in cell growth inhibition [4]: > 10 times

Molecule: O=C(O)c1ccc(NC(=O)[C@@H]2NC3(CCCCC3)[C@@]3(C(=O)Nc4cc(Cl)ccc43)[C@H]2c2cccc(Cl)c2F)cc1 [MI-1061, reference compound]
- weight loss or other signs of toxicity [5]: no significant weight loss or other signs of toxicity
- effect on MDM2 and p53 protein levels (western blotting) ([6]; RS4;11 cells, 2 h treatment): inducing accumulation of both MDM2 and p53; also recorded: induces accumulation of both MDM2 and p53 proteins
- effect of pretreatment with lenalidomide on cell growth inhibitory activity (MV4;11 AML cell line): has no effect on the activity
- effect of pretreatment with lenalidomide on cell growth inhibitory activity (RS4;11 cell line; RS4;11, 4 days, WST-8): no significant effect
- IC50 ([2]; Homo sapiens): > 10000 nM
- antitumor activity (RS4;11 xenograft tumors; 100 mg/kg, oral, daily dosing (5 days a week)): effectively retards tumor growth over the control
- transcriptional upregulation of p53 target genes (MDM2, p21, PUMA) [3]: effectively induces marked transcriptional upregulation of p53 target genes

Molecule: (3’R,4’S,5’R)-6”-Chloro-4’-(3-Chloro-2-fluorophenyl)-N-(4-((5-(2-(2,6-dioxopiperidin-3-yl)-1-oxoisoindolin-4-yl)pentyl)carbamoyl)phenyl)-2”-oxodispiro[cyclohexane-1,2’-pyrrolidine-3’,3”-indoline]-5’-carboxamide [Compound 13]
- effect on MDM2 and p53 protein levels (western blotting) [7]: similarly potent and effective in inducing depletion of MDM2 protein and accumulation of p53 protein
- concentration that reduces/depletes MDM2 protein ([6]; RS4;11 / leukemia cells, 2 h treatment): ≤ 1 nM
- IC50 (MOLM-13): 11.7 ± 4 nM
- IC50 (MOLM-14): 22.5 ± 8 nM
- IC50 (KG-1): > 10000 nM
- times more potent than 1 in inhibition of cell growth (RS4;11 cell line; RS4;11): 4 times
- IC50 (RS4;11 cell line; [9]): 2.8 ± 1.1 nM
- IC50 (Mono-Mac-6): > 10000 nM
- effect on TP53 mRNA [3]: have no effect on TP53
- times more potent than MI-1061 in transcriptional upregulation of p53 target genes [3]: > 10 times
- IC50 (ML-2): 11.5 ± 6 nM
- IC50 (SIG-M5): 29.9 ± 16 nM
- IC50 (OCL-AML-5): 58.2 ± 29 nM

Molecule: O=C1CCC(N2C(=O)c3cccc(NCCCCCCCNC(=O)c4ccc(NC(=O)[C@@H]5NC6(CCCCC6)[C@@]6(C(=O)Nc7cc(Cl)ccc76)[C@H]5c5cccc(Cl)c5F)cc4)c3C2=O)C(=O)N1 (stereo partly shown) [Compound 8, (3’R,4’S,5’R)-6”-Chloro-4’-(3-Chloro-2-fluorophenyl)-N-(4-((7-((2-(2,6-dioxopiperidin-3-yl)-1,3-dioxoisoindolin-4-yl)amino)heptyl)carbamoyl)phenyl)-2”-oxodispiro[cyclohexane-1,2’-pyrrolidine-3’,3”-indoline]-5’-carboxamide]
- effect on MDM2 and p53 protein levels (western blotting) ([6]; RS4;11 cells, 2 h treatment): induce degradation of MDM2 and accumulation of p53
- times less potent than 1 in inhibition of cell growth (RS4;11 cell line; RS4;11): 10 times

Molecule: CC(C)(C)C[C@@H]1N[C@@H](C(=O)N[C@H]2CC[C@H](O)CC2)[C@H](c2cccc(Cl)c2F)[C@]12C(=O)Nc1cc(Cl)ccc12 [MI-77301]
- duration of p53 protein upregulation in tumor tissue [8]: only a few hours

Molecule: (3’R,4’S,5’R)-6”-Chloro-4’-(3-Chloro-2-fluorophenyl)-N-(4-(((S)-14-((2S,4R)-4-hydroxy-2-(((S)-1-(4-(4-methylthiazol-5-yl)phenyl)ethyl)carbamoyl)pyrrolidine-1-carbonyl)-15,15-dimethyl-12-oxo-3,6,9-trioxa-13-azahexadecyl)carbamoyl)phenyl)-2”-oxodispiro[cyclohexane-1,2’-pyrrolidine-3’,3”-indoline]-5’-carboxamide [Compound 20]
- effect on MDM2 protein level (western blotting) ([6]; RS4;11 cells, 12 h treatment): fails to reduce the level of MDM2 protein
- IC50 (RS4;11 cell line; [9]): 340 ± 20 nM
- IC50 (RS4;11 cell line; read-out: IC50 in the cell growth assay in the RS4;11 cell line): 300 nM

Molecule: (3’R,4’S,5’R)-6”-Chloro-4’-(3-Chloro-2-fluorophenyl)-N-(4-((5-(2-(2,6-dioxopiperidin-3-yl)-3-oxoisoindolin-5-yl)pent-4-yn-1-yl)carbamoyl)phenyl)-2”-oxodispiro[cyclohexane-1,2’-pyrrolidine-3’,3”-indoline]-5’-carboxamide [Compound 17]
- effect on MDM2 and p53 protein levels (western blotting) ([6]; RS4;11 cells, 2 h treatment): effectively induce degradation of MDM2 and accumulation of p53
- times less potent than MD-224 in inhibition of cell growth (RS4;11 cell line; RS4;11): 3 times
- IC50 (RS4;11 cell line; [9]): 5 ± 3 nM
